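Tested at 5 concentrations; 48 h exposure; 96-well plates; endpoints linearly interpolated, else capped at highest concentration. GI50 marks 50% less growth. TGI marks complete inhibition of growth.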
What was measured:
Test in all cases: growth of human tumour cells (NCI), 48 h
786-0 renal = tested on: 786-0 renal
A549 NSCLC = tested on: A549 NSCLC
ACHN renal = tested on: ACHN renal
COLO 205 colon = tested on: COLO 205 colon
HT29 colon = tested on: HT29 colon
RXF 393 renal = tested on: RXF 393 renal
SNB-75 CNS = tested on: SNB-75 CNS
NCI-H226 lung = tested on: NCI-H226 lung
SK-MEL-28 melanoma = tested on: SK-MEL-28 melanoma

| SMILES | TGI (786-0 renal) [µM] | TGI (A549 NSCLC) [µM] | TGI (ACHN renal) [µM] | TGI (COLO 205 colon) [µM] | TGI (HT29 colon) [µM] | TGI (RXF 393 renal) [µM] | TGI (SNB-75 CNS) [µM] | GI50 (786-0 renal) [µM] | GI50 (A549 NSCLC) [µM] | GI50 (ACHN renal) [µM] | GI50 (COLO 205 colon) [µM] | GI50 (HT29 colon) [µM] | GI50 (NCI-H226 lung) [µM] | TGI (NCI-H226 lung) [µM] | GI50 (RXF 393 renal) [µM] | GI50 (SK-MEL-28 melanoma) [µM] | TGI (SK-MEL-28 melanoma) [µM] | GI50 (SNB-75 CNS) [µM] |
| --- | --- | --- | --- | --- | --- | --- | --- | --- | --- | --- | --- | --- | --- | --- | --- | --- | --- | --- |
| Cc1nnc2n1N=C(c1ccccc1)C(c1ccccc1)S2 (centres undefined) | > 100 | > 100 | > 100 | 41.8 | > 100 | 85.7 | 79.7 | – | – | – | – | – | – | – | – | – | – | – |
| CCOC(=O)Nc1ccc2nc(-c3cscn3)[nH]c2c1 | > 100 | > 100 | > 100 | 18.9 | 97.5 | 13.6 | 29.4 | 9.16 | 5.99 | 8.45 | 3.64 | 2.6 | 30.7 | > 100 | 2.41 | 7.23 | > 100 | 2.84 |
| Cc1cc(Cl)ccc1NC(=O)CCCC(=O)C1C/C(=N/O)CC/C1=N\O (centres undefined) | > 100 | > 100 | > 100 | > 100 | > 100 | – | > 100 | – | – | – | – | – | – | > 100 | – | – | > 100 | – |
| Clc1ccccc1C(Nc1cnccn1)Nc1cnccn1 | > 100 | > 100 | > 100 | > 100 | > 100 | > 100 | > 100 | – | – | – | – | – | – | > 100 | – | – | > 100 | – |
| CCCCCCCC/C=C/CCCCCCCC1=NC(C)(C)CN1C(C)(C)CO | 3.12 | 3.82 | 3.52 | 3.42 | 3.38 | 3.99 | 5.77 | 1.64 | 1.87 | 1.81 | 1.88 | 1.45 | 2.87 | 7.61 | 2.17 | 1.79 | 3.18 | 1.89 |
| Cn1c(COC(=O)NCCc2ccccn2)nc2c(N3CCOCC3)nc(Cl)nc21 | 2.95 | 5.96 | 2.57 | 3.61 | 3.17 | 2.45 | 11.8 | 1.34 | 1.85 | 1.27 | 1.72 | 1.17 | 12.3 | 30.4 | 1.06 | 1.7 | 3.47 | 1.38 |
| COc1ccc2c(c1)C(=O)c1c-2c(OCCCN(C)C)nc2cc(Br)ccc12 | 2.99 | 11.4 | 2.73 | > 100 | 26.8 | 3.4 | 4.44 | 1.59 | 3.52 | 1.29 | 13.8 | 10.5 | 4.63 | 18.7 | 1.7 | 1.87 | 3.74 | 1.57 |
| Cc1ccc(C2=CC(=O)c3ccccc3C2=O)n1-c1ccccc1 | > 100 | > 100 | – | > 100 | > 100 | > 100 | > 100 | – | – | – | – | – | – | 84.8 | – | – | > 100 | – |
| CCC[CH2][Sn-]([CH2]CCC)([CH2]CCC)[O]C(=O)C(C)C | 0.228 | 0.267 | 0.273 | 0.274 | 0.208 | 0.237 | – | 0.109 | 0.13 | 0.142 | 0.13 | 0.0573 | 0.161 | 0.34 | 0.107 | 0.182 | 0.329 | – |
| CC(C)C[C@@H](N)[C@@H](O)C(=O)N[C@H](C(=O)N[C@H](C(=O)N[C@@H](CC(=O)O)C(=O)O)C(C)C)C(C)C | > 20 | > 20 | > 20 | > 20 | > 20 | – | > 20 | > 20 | > 20 | > 20 | > 20 | > 20 | > 20 | > 20 | – | > 20 | > 20 | > 20 |
| O=c1c(Cc2ccc3c(c2)OCO3)nnc2sc(-c3cc(F)c(Cl)cc3Cl)nn12 | > 100 | > 100 | > 100 | 59.2 | > 100 | > 100 | > 100 | 17.2 | 41.8 | 53.8 | 22.6 | 35.2 | 85.6 | > 100 | 42.7 | 32.2 | > 100 | 28.5 |
| C1=CC(=P(c2ccccc2)(c2ccccc2)c2ccccc2)C=C1 | 28.8 | 79.7 | 28.2 | 14.8 | 23.7 | 28.2 | 20.8 | – | – | – | – | – | – | – | – | – | 19.6 | – |
| Cc1cc2c(c(C(=O)O)c1C)-c1cccc(Cl)c1C2=O | > 100 | > 100 | > 100 | > 100 | > 100 | > 100 | > 100 | – | – | – | – | – | – | > 100 | – | – | > 100 | – |
| O=C(Nc1ccc(Cl)cc1C(F)(F)F)C(=O)Nn1c(=S)[nH]c2ccccc2c1=O | > 100 | > 100 | > 100 | – | > 100 | > 100 | > 100 | – | – | – | – | – | – | > 100 | – | – | > 100 | – |

Reference: PubChem BioAssay (NCI)
